Test results: patent publication US8017612B2, “Piperazine compound and use thereof as a HCV polymerase inhibitor” (priority 2006, dated 2011)

What was measured:
[1] = target: T1, HCV polymerase (NS5B) type 1a (Hepatitis C virus genotype 1a, UniProt P26664); assay: Assay of enzyme (HCV polymerase) inhibitory activity, type 1a enzyme; type: biochemical, HCV type 1a (cloned from the blood of patients)
T1 construct: made in house; host or cells: Escherichia coli (by the 'similar method' of the 1b enzyme)
Method in brief: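 NS5B Δ47 C-term His6 (type 1a, 1.5 μg/ml); substrate RNA 5 μg/ml; ATP/GTP/CTP 50 μM, UTP 2 μM + [5,6-3H]UTP; Tris pH 7.5, MgCl2 5 mM; 25° C, 60 min. TCA/pyrophosphate stop, GF/B filter, scintillation. IC50 vs no-compound control.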

[2] = target: T2, HCV polymerase (NS5B) type 1b (Hepatitis C virus genotype 1b, UniProt P26663); assay: Assay of enzyme (HCV polymerase) inhibitory activity, type 1b enzyme; type: biochemical, HCV BK strain (type 1b)
T2 construct: a region encoding NS5B (J Virol 1991 March, 65(3), 1105-13, 544 amino acids after deletion of 47 amino acids on the C-terminal); 6xHis (C); made in house; host or cells: Escherichia coli
Method in brief: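 Rxn: NS5B 1b (BK, ΔC47, His6) 0.5 μg/ml; substrate RNA 5 μg/ml; ATP/GTP/CTP 50 μM, UTP 2 μM + [5,6-3H]UTP; 20 mM Tris pH 7.5, 5 mM MgCl2, 50 mM NaCl, 1 mM EDTA/DTT. 25 °C, 60 min. Stop with TCA/pyrophosphate, filter, scintillation count; IC50 vs. untreated.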

[3] = HCV polymerase inhibitory activity IC50, 1a, type 1a enzyme
[4] = HCV polymerase inhibitory activity IC50, 1b, type 1b enzyme
[5] = HCV polymerase inhibitory activity (IC50), 1a, type 1a enzyme 1.5 μg/ml, 25° C., 60 min
[6] = HCV polymerase inhibitory activity (IC50), 1b, type 1b enzyme 0.5 μg/ml, 25° C., 60 min

Compound	IC50 [1, 3] [nM]	IC50 [2, 4] [nM]	IC50 [1, 5] [nM]	IC50 [2, 6] [nM]
O=C(NCc1ccc(OC(F)(F)F)cc1)[C@H]1CN(c2nc3ccc(=O)[nH]c3s2)CCN1S(=O)(=O)c1ccc(OC(F)(F)F)cc1 [Example 1062, (R)-4-(5-oxo-4,5-dihydro-thiazolo[5,4-b]pyridin-2-yl)-1-(4-trifluoromethoxy-benzenesulfonyl)-piperazine-2-carboxylic acid 4-trifluoromethoxy-benzylamide]	< 100	< 100		
O=C(NCc1ccc(OC(F)(F)F)cc1)[C@H]1CN(c2nc3nc(Cl)ncc3s2)CCN1S(=O)(=O)c1ccc(OC(F)(F)C(F)F)cc1 [Example 959, (R)-4-(5-chloro-thiazolo[4,5-d]pyrimidin-2-yl)-1-[4-(1,1,2,2-tetrafluoro-ethoxy)-benzenesulfonyl]-piperazine-2-carboxylic acid 4-trifluoromethoxy-benzylamide]	< 100	< 100		
CCC(F)(F)c1ccc(CNC(=O)[C@H]2CN(c3cnc4[nH]cnc4n3)CCN2S(=O)(=O)c2ccc(OC(F)(F)F)cc2)cc1 [Example 676, (R)-4-(1H-imidazo[4,5-b]pyrazin-5-yl)-1-(4-trifluoromethoxy-benzenesulfonyl)-piperazine-2-carboxylic acid 4-(1,1-difluoro-propyl)-benzylamide]	< 100	< 100		
O=C(NCc1ccc(OC(F)(F)F)cc1)[C@H]1CN(c2nn3c(=O)c(C(F)(F)F)nnc3s2)CCN1S(=O)(=O)c1ccc(OC(F)(F)F)cc1 [Example 1031, (R)-4-(4-oxo-3-trifluoromethyl-4H-[1,3,4]thiadiazolo[2,3-c][1,2,4]triazin-7-yl)-1-(4-trifluoromethoxy-benzenesulfonyl)-piperazine-2-carboxylic acid 4-trifluoromethoxy-benzylamide]	100 to 1000	100 to 1000		
CNC(=O)c1n[nH]c(=O)c2sc(N3CCN(S(=O)(=O)c4ccc(OC(F)(F)F)cc4)[C@@H](C(=O)NCc4ccc(OC(F)(F)F)cc4)C3)nc12 [Example 875, 7-oxo-2-[(R)-4-(4-trifluoromethoxy-benzenesulfonyl)-3-(4-trifluoromethoxy-benzylcarbamoyl)-piperazin-1-yl]-6,7-dihydro-thiazolo[4,5-d]pyridazine-4-carboxylic acid methylamide]	< 100	< 100		
CCCc1ccc(CNC(=O)[C@H]2CN(c3cnc4[nH]c(=O)[nH]c4n3)CCN2S(=O)(=O)c2ccc(OC(F)(F)F)cc2)cc1 [Example 628, (R)-4-(2-oxo-2,3-dihydro-1H-imidazo[4,5-b]pyrazin-5-yl)-1-(4-trifluoromethoxy-benzenesulfonyl)-piperazine-2-carboxylic acid 4-propyl-benzylamide]			100 to 1000	< 100
CCCc1ncc(S(=O)(=O)N2CCN(C(C)=O)C[C@@H]2C(=O)NCc2ccc(C(C)C)cc2)s1 [Example 375, (R)-4-acetyl-1-(2-propyl-thiazole-5-sulfonyl)-piperazine-2-carboxylic acid 4-isopropyl-benzylamide]			< 100	< 100
O=C(NCc1ccc(OC(F)(F)F)cc1)[C@H]1CN(c2nn3ccc(=O)nc3s2)CCN1S(=O)(=O)c1ccc(OC(F)F)cc1 [Example 1058, (R)-1-(4-difluoromethoxy-benzenesulfonyl)-4-(7-oxo-7H-[1,3,4]thiadiazolo[3,2-a]pyrimidin-2-yl)-piperazine-2-carboxylic acid 4-trifluoromethoxy-benzylamide]	< 100	< 100		
CCCc1ccc(S(=O)(=O)N2CCN(C(=O)Nc3cccc(OCC(=O)OCC)c3)C[C@@H]2C(=O)NCc2ccc(C(C)C)cc2)cc1 [Example 281, (3-{[(R)-3-(4-isopropyl-benzylcarbamoyl)-4-(4-propyl-benzenesulfonyl)-piperazine-1-carbonyl]-amino}-phenoxy)-acetic acid ethyl ester]			100 to 1000	< 100
CCCc1ccc(CNC(=O)[C@H]2CN(c3ccc(O)nn3)CCN2S(=O)(=O)c2ccc(OC(F)(F)F)cc2)cc1 [Example 546, (R)-4-(6-hydroxy-pyridazin-3-yl)-1-(4-trifluoromethoxy-benzenesulfonyl)-piperazine-2-carboxylic acid 4-propyl-benzylamide]			< 100	< 100
CC(=O)N1CCN(S(=O)(=O)c2ccc(OC(F)(F)F)cc2)[C@@H](C(=O)NCc2ccc(C(C)(C)C)cc2)C1 [Example 529, (R)-4-acetyl-1-(4-trifluoromethoxy-benzenesulfonyl)-piperazine-2-carboxylic acid 4-tert-butyl-benzylamide]			< 100	< 100
CCCc1ccc(CNC(=O)[C@H]2CN(c3cnc(NS(C)(=O)=O)cn3)CCN2S(=O)(=O)c2ccc(OC(F)(F)F)cc2)cc1 [Example 544, (R)-5′-methanesulfonylamino-4-(4-trifluoromethoxy-benzenesulfonyl)-3,4,5,6-tetrahydro-2H-[1,2′]bipyrazinyl-3-carboxylic acid 4-propyl-benzylamide]			< 100	< 100
CC(C)c1ccc(CNC(=O)[C@H]2CN(C(=O)CCNC(=O)OC(C)(C)C)CCN2S(=O)(=O)c2ccc(C(F)(F)F)cc2)cc1 [Example 186, {3-[(R)-3-(4-isopropyl-benzylcarbamoyl)-4-(4-trifluoromethyl-benzenesulfonyl)-piperazin-1-yl]-3-oxo-propyl}-carbamic acid tert-butyl ester]			> 1000	100 to 1000
CC(=O)N1CCN(S(=O)(=O)c2ccc(CO)cc2)C(C(=O)NCc2ccc(C(F)(F)F)cc2)C1 (centres unmarked) [Example 132, 4-acetyl-1-(4-hydroxymethyl-benzenesulfonyl)-piperazine-2-carboxylic acid 4-trifluoromethyl-benzylamide]			> 1000	> 1000
O=C(NCc1ccc(OC(F)(F)F)cc1)[C@H]1CN(c2nc3nc(C4CCC4)ncc3s2)CCN1S(=O)(=O)c1ccc(C(F)(F)F)cc1 [Example 1072, (R)-4-(5-cyclobutyl-thiazolo[4,5-d]pyrimidin-2-yl)-1-(4-trifluoromethyl-benzenesulfonyl)-piperazine-2-carboxylic acid 4-trifluoromethoxy-benzylamide]	< 100	< 100		
CC(C)c1ccc(CNC(=O)[C@H]2CN(c3nc([N+](=O)[O-])n[nH]3)CCN2S(=O)(=O)c2ccc(C(F)(F)F)cc2)cc1 [Example 362, (R)-4-(5-nitro-2H-[1,2,4]triazol-3-yl)-1-(4-trifluoromethyl-benzenesulfonyl)-piperazine-2-carboxylic acid 4-isopropyl-benzylamide]			> 1000	100 to 1000
O=C(NCc1ccc(-c2ccccn2)s1)[C@H]1CN(c2cnc3cncnc3n2)CCN1S(=O)(=O)c1ccc(OC(F)(F)F)cc1 [Example 730, (R)-4-pteridin-7-yl-1-(4-trifluoromethoxy-benzenesulfonyl)-piperazine-2-carboxylic acid (5-pyridin-2-yl-thiophen-2-ylmethyl)-amide]	< 100	< 100		
Cc1nc(N2CCN(S(=O)(=O)c3ccc(C(F)(F)F)cc3)[C@@H](C(=O)NCc3ccc(C(C)C)cc3)C2)sc1C(N)=O [Example 7, (R)-4-(5-carbamoyl-4-methyl-thiazol-2-yl)-1-(4-trifluoromethyl-benzenesulfonyl)-piperazine-2-carboxylic acid 4-isopropyl-benzylamide]			< 100	< 100
CCC(F)(F)c1ccc(CNC(=O)[C@H]2CN(C(=O)Nc3ccnc(C(=O)N4CCCC4)c3)CCN2S(=O)(=O)c2ccc(OC(F)(F)F)cc2)cc1 [Example 514, (R)-4-(4-trifluoromethoxy-benzenesulfonyl)-piperazine-1,3-dicarboxylic acid 3-[4-(1,1-difluoro-propyl)-benzylamide] 1-{[2-(pyrrolidine-1-carbonyl)-pyridin-4-yl]-amide}]			< 100	< 100
CC(C)c1ccc(CNC(=O)[C@H]2CN(C(=O)CNC(=O)CCC(=O)O)CCN2S(=O)(=O)c2ccc(C(F)(F)F)cc2)cc1 [Example 274, N-{2-[(R)-3-(4-isopropyl-benzylcarbamoyl)-4-(4-trifluoromethyl-benzenesulfonyl)-piperazin-1-yl]-2-oxo-ethyl}-succinamic acid]			> 1000	100 to 1000
CCC(F)(F)c1ccc(CNC(=O)[C@H]2CN(c3nc4nc(C)ncc4s3)CCN2S(=O)(=O)c2ccc(C(F)(F)F)cc2)cc1 [Example 935, (R)-4-(5-methyl-thiazolo[4,5-d]pyrimidin-2-yl)-1-(4-trifluoromethyl-benzenesulfonyl)-piperazine-2-carboxylic acid 4-(1,1-difluoro-propyl)-benzylamide]	< 100	< 100		
CCCc1ccc(CNC(=O)[C@H]2CN(c3nc(C)c(CO)s3)CCN2S(=O)(=O)c2ccc(OC(F)(F)F)cc2)cc1 [Example 452, (R)-4-(5-hydroxymethyl-4-methyl-thiazol-2-yl)-1-(4-trifluoromethoxy-benzenesulfonyl)-piperazine-2-carboxylic acid 4-propyl-benzylamide]			< 100	< 100
